Data reported in ChEMBL document CHEMBL3046907, “Microwave-assisted synthesis of pyrido[1,2-a]benzimidazole derivatives of -aryloxyquinoline and their antimicrobial and antituberculosis activities” (2013).
≈ marks a conversion by molar mass, not a printed value.

Tests used:
Assay type in all cases: functional
Vibrio cholerae = experiment: Antibacterial activity against Vibrio cholerae MTCC 3906 after overnight incubation by broth microdilution method
Aspergillus fumigatus = experiment: Antifungal activity against Aspergillus fumigatus MTCC 3008 after overnight incubation by broth microdilution method
Clostridium tetani = experiment: Antibacterial activity against Clostridium tetani MTCC 449 after overnight incubation by broth microdilution method
Streptococcus pneumoniae = experiment: Antibacterial activity against Streptococcus pneumoniae MTCC 1936 after overnight incubation by broth microdilution method
Bacillus subtilis = experiment: Antibacterial activity against Bacillus subtilis MTCC 441 after overnight incubation by broth microdilution method
Salmonella typhi = experiment: Antibacterial activity against Salmonella enterica subsp. enterica serovar Typhi MTCC 98 after overnight incubation by broth microdilution method
[1] = tested on: Mycobacterium tuberculosis; experiment: Growth inhibition of Mycobacterium tuberculosis H37Rv at 6.25 ug/ml after 28 days by Lowenstein-Jensen method; conditions: 672 h, read-out: GI
Candida albicans = experiment: Antifungal activity against Candida albicans MTCC 227 after overnight incubation by broth microdilution method
Escherichia coli = experiment: Antibacterial activity against Escherichia coli MTCC 443 after overnight incubation by broth microdilution method
[2] = tested on: Mycobacterium tuberculosis; experiment: Antitubercular activity against Mycobacterium tuberculosis H37Rv after 28 days by Lowenstein-Jensen method; conditions: 672 h

Structure (SMILES)	MIC99 (Vibrio cholerae)	MIC99 (Aspergillus fumigatus)	MIC99 (Clostridium tetani)	MIC99 (Streptococcus pneumoniae)	MIC99 (Bacillus subtilis)	MIC99 (Salmonella typhi)	inhibition of growth at 6.25 µg/mL [1]	MIC99 (Candida albicans)	MIC99 (Escherichia coli)	MIC [2]
Cc1ccc2c(c1)nc1c(C#N)c(-c3cc4ccccc4nc3Oc3ccccc3)c(C#N)c(N)n12	500 µg/mL (≈ 1070 µM)	500 µg/mL (≈ 1070 µM)	250 µg/mL (≈ 536 µM)	250 µg/mL (≈ 536 µM)	200 µg/mL (≈ 429 µM)	200 µg/mL (≈ 429 µM)	49%	500 µg/mL (≈ 1070 µM)	100 µg/mL (≈ 214 µM)	–
COc1ccc(Oc2nc3ccccc3cc2-c2c(C#N)c(N)n3c(nc4cc(C)ccc43)c2C#N)cc1	250 µg/mL (≈ 503 µM)	1000 µg/mL (≈ 2010 µM)	200 µg/mL (≈ 403 µM)	250 µg/mL (≈ 503 µM)	250 µg/mL (≈ 503 µM)	125 µg/mL (≈ 252 µM)	64%	200 µg/mL (≈ 403 µM)	100 µg/mL (≈ 201 µM)	–
Cc1ccc2c(c1)nc1c(C#N)c(-c3cc4ccccc4nc3Oc3ccc(F)cc3)c(C#N)c(N)n12	500 µg/mL (≈ 1030 µM)	> 1000 µg/mL	250 µg/mL (≈ 516 µM)	100 µg/mL (≈ 206 µM)	500 µg/mL (≈ 1030 µM)	125 µg/mL (≈ 258 µM)	99%	250 µg/mL (≈ 516 µM)	62.5 µg/mL (≈ 129 µM)	6.25 µg/mL (≈ 12.9 µM)
Cc1ccc2nc(Oc3ccccc3)c(-c3c(C#N)c(N)n4c(nc5cc(C)ccc54)c3C#N)cc2c1	200 µg/mL (≈ 416 µM)	> 1000 µg/mL	250 µg/mL (≈ 520 µM)	100 µg/mL (≈ 208 µM)	500 µg/mL (≈ 1040 µM)	250 µg/mL (≈ 520 µM)	71%	500 µg/mL (≈ 1040 µM)	250 µg/mL (≈ 520 µM)	–
Cc1ccc(Oc2nc3ccc(C)cc3cc2-c2c(C#N)c(N)n3c(nc4cc(C)ccc43)c2C#N)cc1	125 µg/mL (≈ 253 µM)	500 µg/mL (≈ 1010 µM)	125 µg/mL (≈ 253 µM)	250 µg/mL (≈ 506 µM)	200 µg/mL (≈ 404 µM)	250 µg/mL (≈ 506 µM)	58%	500 µg/mL (≈ 1010 µM)	200 µg/mL (≈ 404 µM)	–
COc1ccc(Oc2nc3ccc(C)cc3cc2-c2c(C#N)c(N)n3c(nc4cc(C)ccc43)c2C#N)cc1	200 µg/mL (≈ 392 µM)	> 1000 µg/mL	100 µg/mL (≈ 196 µM)	125 µg/mL (≈ 245 µM)	125 µg/mL (≈ 245 µM)	250 µg/mL (≈ 490 µM)	25%	1000 µg/mL (≈ 1960 µM)	250 µg/mL (≈ 490 µM)	–
Cc1ccc2nc(Oc3ccc(F)cc3)c(-c3c(C#N)c(N)n4c(nc5cc(C)ccc54)c3C#N)cc2c1	100 µg/mL (≈ 201 µM)	> 1000 µg/mL	100 µg/mL (≈ 201 µM)	200 µg/mL (≈ 401 µM)	250 µg/mL (≈ 501 µM)	200 µg/mL (≈ 401 µM)	97%	> 1000 µg/mL	200 µg/mL (≈ 401 µM)	12.5 µg/mL (≈ 25.1 µM)
COc1ccc2nc(Oc3ccccc3)c(-c3c(C#N)c(N)n4c(nc5cc(C)ccc54)c3C#N)cc2c1	250 µg/mL (≈ 503 µM)	500 µg/mL (≈ 1010 µM)	250 µg/mL (≈ 503 µM)	250 µg/mL (≈ 503 µM)	250 µg/mL (≈ 503 µM)	100 µg/mL (≈ 201 µM)	78%	1000 µg/mL (≈ 2010 µM)	62.5 µg/mL (≈ 126 µM)	–
N#Cc1c(-c2cc3ccccc3nc2Oc2ccccc2)c(C#N)c2nc3ccccc3n2c1N	200 µg/mL (≈ 442 µM)	500 µg/mL (≈ 1110 µM)	100 µg/mL (≈ 221 µM)	62.5 µg/mL (≈ 138 µM)	100 µg/mL (≈ 221 µM)	250 µg/mL (≈ 553 µM)	80%	1000 µg/mL (≈ 2210 µM)	250 µg/mL (≈ 553 µM)	–
CC1(C)S[C@@H]2[C@H](NC(=O)[C@H](N)c3ccccc3)C(=O)N2[C@H]1C(=O)O [AMPICILLIN]	100 µg/mL (≈ 286 µM)	–	250 µg/mL (≈ 715 µM)	100 µg/mL (≈ 286 µM)	250 µg/mL (≈ 715 µM)	100 µg/mL (≈ 286 µM)	–	–	100 µg/mL (≈ 286 µM)	–
O=C(O)c1cn(C2CC2)c2cc(N3CCNCC3)c(F)cc2c1=O [CIPROFLOXACIN]	25 µg/mL (≈ 75.4 µM)	–	–	50 µg/mL (≈ 151 µM)	50 µg/mL (≈ 151 µM)	25 µg/mL (≈ 75.4 µM)	–	–	25 µg/mL (≈ 75.4 µM)	–
COC1=CC(=O)C[C@@H](C)[C@]12Oc1c(Cl)c(OC)cc(OC)c1C2=O [GRISEOFULVIN]	–	100 µg/mL (≈ 283 µM)	–	–	–	–	–	500 µg/mL (≈ 1420 µM)	–	–
NNC(=O)c1ccncc1 [ISONIAZID]	–	–	–	–	–	–	99%	–	–	0.2 µg/mL (≈ 1.46 µM)
CCn1cc(C(=O)O)c(=O)c2cc(F)c(N3CCNCC3)cc21 [NORFLOXACIN]	10 µg/mL (≈ 31.3 µM)	–	50 µg/mL (≈ 157 µM)	10 µg/mL (≈ 31.3 µM)	100 µg/mL (≈ 313 µM)	10 µg/mL (≈ 31.3 µM)	–	–	10 µg/mL (≈ 31.3 µM)	–
CO[C@H]1/C=C/O[C@@]2(C)Oc3c(C)c(O)c4c(O)c(c(/C=N/N5CCN(C)CC5)c(O)c4c3C2=O)NC(=O)/C(C)=C\C=C\[C@H](C)[C@H](O)[C@@H](C)[C@@H](O)[C@@H](C)[C@H](OC(C)=O)[C@@H]1C [RIFAMPIN]	–	–	–	–	–	–	98%	–	–	40 µg/mL (≈ 48.6 µM)
